Assay results taken from publication PMC9653804, “Multifunctional Derivatives of Spiropyrrolidine Tethered Indeno-Quinoxaline Heterocyclic Hybrids as Potent Antimicrobial, Antioxidant and Antidiabetic Agents: Design, Synthesis, In Vitro and In Silico Approaches” (Molecules, 2022).
≈ marks a conversion by molar mass, not a printed value.

Experiments:
[1] = system: Staphylococcus aureus ATCC 25923; experiment: Antimicrobial activity (MIC, MBC) against S. aureus; assay type: cell-based; conditions: S. aureus ATCC 25923; for MBC/MIC: bactericidal ≤ 4, bacteriostatic > 4; for MIC: Staphylococcus aureus, ATCC25923, '-' = No activity
[2] = system: Micrococccus luteus NCIMB 8166; experiment: Antimicrobial activity (MIC, MBC) against M. luteus; assay type: cell-based; conditions: M. luteus NCIMB 8166; '-' = No activity
[3] = system: Escherichia coli ATCC 25922; experiment: Antimicrobial activity (MIC, MBC) against E. coli; assay type: cell-based; conditions: E. coli ATCC 25922; '-' = No activity
[4] = system: Pseudomonas aeruginosa ATCC 27853; experiment: Antimicrobial activity (MIC, MBC) against P. aeruginosa; assay type: cell-based; conditions: P. aeruginosa ATCC 27853; '-' = No activity
[5] = system: Candida albicans ATCC 90028; experiment: Antifungal activity (MIC, MFC) against C. albicans; assay type: cell-based; conditions: C. albicans ATCC 90028, '-' = No activity; for MFC/MIC: fungicidal ≤ 4, fungistatic > 4
Candida krusei ATCC 6258 = experiment: Antifungal activity (MIC, MFC) against C. krusei; assay type: cell-based; conditions: C. krusei ATCC 6258, '-' = No activity; for MFC / MIC: Pichia kudriavzevii, ATCC6258
[6] = DPPH free radical scavenging activity; conditions: for IC50: DPPH radical scavenging
Protocol: DPPH, the stable artificial free radicals, has been widely used for the measurement of free radical scavenging capacity of the compounds in ethanol and aqueous systems. Briefly, 2 mL DPPH solution (0.2 mM, in 95% ethanol) was incubated with 2 mL different concentrations of compounds solution. Then, the reaction mixture was shaken and incubated in the dark for 40 min at room temperature. The absorbance was immediately recorded at 517 nm against ethanol with a spectrophotometer (Metash, model UV-5200, Shanghai Xiwen Biotech. Co., Ltd, Shanghai, China). The DPPH free radical scavenging rate was calculated using the equation:DPPH scavenging activity (%) = A0 − A1/A0 × 100 where A0 was the absorbance of the control reaction (containing all reagents except the tested compound), and A1 was the absorbance of the test reaction (containing all reagents with the tested compound). The percentage of DPPH radical scavenging activity was plotted against the sample concentration to acquire the IC50 value, defined as the concentration of sample necessary to cause 50% inhibition. Radical scavenging activity (RSA) was calculated from the IC50 value as the equation: RSA = pIC50 = −lg[IC50]. The smaller the IC50 value, the larger is the RSA value and the higher is the antioxidant activity.

[7] = Radical scavenging activity ABTS; conditions: for IC50: ABTS radical scavenging
Protocol: The ABTS assay was performed as previously described by Tuberoso et al.. ABTS^+ radical was generated by oxidation of ABTS with potassium persulfate. The blue–green ABTS was produced through the reaction between 2 mM ABTS and […] potassium persulfate in water. The mixture was left to stand in the dark for 12 to 16 h before use. The ABTS solution was diluted with methanol to an absorbance of 0.700 ± 0.005 at 734 nm. Then 2 mL of diluted ABTS solution was mixed with 100 μL of samples and absorbance was measured after 1 min incubation at room temperature. A standard curve was obtained by using Trolox as standard solution. The results were expressed as μM Trolox equivalent.
The mixture of 7 mmol/L aqueous ABTS solution with 2.45 mmol/L potassium persulfate solution constitutes a stable ABTS^+ stock solution that was allowed to stand in the dark and at room temperature for 12 to 16 h before use. A 1 mL sample of the diluted ABTS solution (adjusted to 0.7 ± 0.02 at […]) was added to 10 μL of each product. The absorbance was determined after 6 min. The percentage inhibition of the ABTS˙ radical was calculated from the following equation:% inhibition = (Abscontrol − Abstest)/Abscontrol × 100
Abs control: the control absorbance.
Abs test: the absorbance of the test sample after 6 min.

[8] = Ferric reducing power assay (FRAP); conditions: relative to standard Trolox
Protocol: The FRAP assay was used to determine the AC of the products by the reduction of Fe(III) and Fe (II). Briefly, Fe(III) was reduced to Fe(II), and Fe(II) was mixed with TPTZ to form a blue complex with strong absorption peak at 593 nm at pH = 3.6 condition. Acetate buffer (pH = 3.6), TPTZ solution (10 mM, in 40 mM hydrochloric acid) and FeCl3 solution (20 mM, in water) were mixed in a ratio of 10:1:1 to prepare FRAP working solution. The products solution (0.5 mL) was mixed with 4.0 mL FRAP working solution, and reacted at 37 °C for 30 min in the dark, and the absorbance at 593 nm was immediately recorded with a spectrophotometer. The result was expressed as the equivalent amount of Trolox per mole of the samples (mol TE/mol).

[9] = Ferric reducing power assay (FRAP)

| MIC [1] [mM] | MBC/MIC [2] | MBC/MIC [3] | MBC/MIC [4] | MIC ([5]; Candida albicans, ATCC90028) [mM] | MFC/MIC (Candida krusei ATCC 6258) | MIC (Candida krusei ATCC 6258) [mM] | IC50 [6] [µM] | IC50 [7] [µM] | melting point [°C] | IC50 [9] [µM] | SMILES | MBC/MIC [1] | MFC/MIC [5] | MFC ([5]; Candida albicans, ATCC90028) [mM] | MFC (Candida krusei ATCC 6258) [mM] | DPPH scavenging activity, fold better than Trolox ([6]; relative to standard Trolox) [fold] | ABTS scavenging activity, fold higher than Trolox ([7]; relative to standard Trolox) [fold] | FRAP activity, fold higher than Trolox [8] |
| --- | --- | --- | --- | --- | --- | --- | --- | --- | --- | --- | --- | --- | --- | --- | --- | --- | --- | --- |
| 15.7 (≈ 7.78 mg/mL) | 1 | 2 | 4 | 62.9 (≈ 31.1 mg/mL) | 1 | 31.4 (≈ 15.6 mg/mL) | 6.12 ± 0.01 | 12.2 ± 0.18 | 182 to 184 | 6.54 ± 0.18 | CN1C(=O)CC2(C1=O)C(c1ccc(Cl)cc1)CN(C)C21c2ccccc2-c2nc3ccccc3nc21 (stereo not drawn) [5e, Spiro [2,11″]indeno-[1,2b]-quinoxaline-spiro-[3,3′]-N-methylsuccinimide-4-(4-chlorophenyl)hexahydro-1H-pyrrolidines] | 16 | 1 | 62.9 (≈ 31.1 mg/mL) | 31.4 (≈ 15.6 mg/mL) | 5.1 | ~8 | about 6.5 fold |
| 33.3 (≈ 15.6 mg/mL) | 1 | 2 | 2 | 66.7 (≈ 31.1 mg/mL) | 1 | 66.7 (≈ 31.1 mg/mL) | 19.1 ± 0.23 | 18.04 ± 0.13 | 203 to 205 | 6.32 ± 0.68 | CN1C(=O)CC2(C1=O)C(c1cccs1)CN(C)C21c2ccccc2-c2nc3ccccc3nc21 (stereo not drawn) [5h, Spiro [2,11″]indeno-[1,2b]-quinoxaline-spiro-[3,3′]-N-methylsuccinimide-4-(4-thiophenyl)hexahydro-1H-pyrrolidines] | 16 | 4 |  | 66.7 (≈ 31.1 mg/mL) |  |  | about 6.5 fold |
|  | 1 | 2 | 4 |  | 1 | 31.4 (≈ 15.6 mg/mL) | 7.8 ± 0.32 | 11.4 ± 0.36 | 193 to 195 | 5.98 ± 0.52 | CN1C(=O)CC2(C1=O)C(c1cccc(Cl)c1)CN(C)C21c2ccccc2-c2nc3ccccc3nc21 (stereo not drawn) [5i, Spiro [2,11″]indeno-[1,2b]-quinoxaline-spiro-[3,3′]-N-methylsuccinimide-4-(3-chloro-phenyl)hexahydro-1H-pyrrolidines] | 4 |  |  | 31.4 (≈ 15.6 mg/mL) |  |  | about 6.5 fold |
